Results: patent US10227323B2, “Glucosylceramide synthase inhibitors for the treatment of diseases” (BIOMARIN PHARMACEUTICAL INC., priority 2013, dated 2019)

The compounds below were run against T1, GCS (Canis lupus familiaris, UniProt A0A8I3MXG6) (assay: Assay 1: GCS Enzymatic Assay (MDCK cell lysate, C6-NBD-Ceramide, LC/MS)). Settings: Table 2; data marked by *.
T1 sequence (A0A8I3MXG6 1-394): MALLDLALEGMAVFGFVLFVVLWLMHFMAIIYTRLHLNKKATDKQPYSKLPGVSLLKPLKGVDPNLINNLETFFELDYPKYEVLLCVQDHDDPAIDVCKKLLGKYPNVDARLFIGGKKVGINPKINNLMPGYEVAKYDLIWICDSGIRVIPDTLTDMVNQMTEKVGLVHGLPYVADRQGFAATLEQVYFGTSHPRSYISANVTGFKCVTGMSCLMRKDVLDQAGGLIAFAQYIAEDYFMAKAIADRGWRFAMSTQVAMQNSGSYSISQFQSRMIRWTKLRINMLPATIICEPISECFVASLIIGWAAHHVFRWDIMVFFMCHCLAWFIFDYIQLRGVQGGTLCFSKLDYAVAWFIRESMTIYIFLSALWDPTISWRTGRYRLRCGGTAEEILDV
Type: biochemical, canine
In short: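 LC/MS/MS measurement of glucosylceramide and NBD-ceramide after a 1 h, 37 °C reaction with 100 μM UDP-glucose and 10 μM C6-NBD-ceramide gave IC50s or percent inhibition.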

Row | SMILES | % inhibition generated from Assay 1
1 | O=C(N[C@H](CN1CCCC1)[C@H](O)c1ccc2c(c1)OCCO2)C(=O)c1csc(-c2ccc(F)cc2)n1 [Compound 229, N-((1R,2R)-1-(2,3-dihydrobenzo[b][1,4]dioxin-6-yl)-1-hydroxy-3-(pyrrolidin-1-yl)propan-2-yl)-2-(2-(4-fluorophenyl)thiazol-4-yl)-2-oxoacetamide] | B* (the compound had a % inhibition of greater than or equal to about 3% but less than about 50%)
2 | O=C(N[C@H](CN1CCCC1)[C@H](O)c1ccc(OC2CC2)c(Cl)c1)C(=O)c1cccc(N2CCCCC2)c1 [Compound 238, N-((2R)-1-(3-chloro-4-cyclopropoxyphenyl)-1-hydroxy-3-(pyrrolidin-1-yl)propan-2-yl)-2-oxo-2-(3-(piperidin-1-yl)phenyl)acetamide] | B* (the compound had a % inhibition of greater than or equal to about 3% but less than about 50%)
3 | Cn1ncc2ccc(C(=O)C(=O)N[C@H](CN3CCCC3)[C@H](O)c3cc(F)c4c(c3)OCCO4)cc21 [Compound 245, N-((1R,2R)-1-(8-fluoro-2,3-dihydrobenzo[b][1,4]dioxin-6-yl)-1-hydroxy-3-(pyrrolidin-1-yl)propan-2-yl)-2-(1-methyl-1H-indazol-6-yl)-2-oxoacetamide] | A* (the compound had a % inhibition of a percent inhibition of greater than or equal to about 50%)
4 | O=C(N[C@H](CN1CCCC1)[C@H](O)c1ccc(OC2CC2)c(Cl)c1)C(F)(F)c1ccc(-c2ccc(F)cc2)nc1 [Compound 247, N-((1R,2R)-1-(3-chloro-4-cyclopropoxyphenyl)-1-hydroxy-3-(pyrrolidin-1-yl)propan-2-yl)-2,2-difluoro-2-(6-(4-fluorophenyl)pyridin-3-yl)acetamide] | A* (the compound had a % inhibition of a percent inhibition of greater than or equal to about 50%)

Same assay, conditions: Table 2; data without asterisk; read-out: IC50 (nM) generated from Assay 1

Row | IC50 | SMILES
5 | < 50 nM | O=C(N[C@H](CN1CCCC1)[C@H](O)c1cc(F)c2c(c1)OCCO2)C(=O)c1ccc(-c2ccc(F)cc2)s1 [Compound 230, N-((1R,2R)-1-(8-fluoro-2,3-dihydrobenzo[b][1,4]dioxin-6-yl)-1-hydroxy-3-(pyrrolidin-1-yl)propan-2-yl)-2-(5-(4-fluorophenyl)thiophen-2-yl)-2-oxoacetamide]
6 | < 50 nM | O=C(N[C@H](CN1CCCC1)[C@H](O)c1ccc(OC2CC2)c(Cl)c1)C(=O)c1ccc(N2CCCCC2)cc1 [Compound 231, N-((1R,2R)-1-(3-chloro-4-cyclopropoxyphenyl)-1-hydroxy-3-(pyrrolidin-1-yl)propan-2-yl)-2-oxo-2-(4-(piperidin-1-yl)phenyl)acetamide]
7 | < 50 nM | Cn1ncc2ccc(-c3ccc(C(F)(F)C(=O)N[C@H](CN4CCCC4)[C@H](O)c4ccc(OC5CC5)c(Cl)c4)cc3)cc21 [Compound 232, N-((1R,2R)-1-(3-chloro-4-cyclopropoxyphenyl)-1-hydroxy-3-(pyrrolidin-1-yl)propan-2-yl)-2,2-difluoro-2-(4-(1-methyl-1H-indazol-6-yl)phenyl)acetamide]
8 | < 50 nM | O=C(N[C@H](CN1CCCC1)[C@H](O)c1ccc(OC2CC2)c(Cl)c1)C(=O)c1ccc2sccc2c1 [Compound 233, 2-(benzo[b]thiophen-5-yl)-N-((1R,2R)-1-(3-chloro-4-cyclopropoxyphenyl)-1-hydroxy-3-(pyrrolidin-1-yl)propan-2-yl)-2-oxoacetamide]
9 | < 50 nM | O=C(N[C@H](CN1CCCC1)[C@H](O)c1cc(Cl)c2c(c1)OCCO2)C(=O)c1ccc(-c2ccc(F)cc2)cc1 [Compound 234, N-((1R,2R)-1-(8-chloro-2,3-dihydrobenzo[b][1,4]dioxin-6-yl)-1-hydroxy-3-(pyrrolidin-1-yl)propan-2-yl)-2-(4′-fluoro-[1,1′-biphenyl]-4-yl)-2-oxoacetamide]
10 | < 50 nM | Cn1ncc2ccc(-c3ccc(C(F)(F)C(=O)N[C@H](CN4CCCC4)[C@H](O)c4ccc5c(c4)OCCO5)cc3)cc21 [Compound 235, N-((1R,2R)-1-(2,3-dihydrobenzo[b][1,4]dioxin-6-yl)-1-hydroxy-3-(pyrrolidin-1-yl)propan-2-yl)-2,2-difluoro-2-(4-(1-methyl-1H-indazol-6-yl)phenyl)acetamide]
11 | < 50 nM | Cn1ncc2ccc(-c3ccc(C(F)(F)C(=O)N[C@H](CN4CCCC4)[C@H](O)c4cc(F)c5c(c4)OCCO5)cc3)cc21 [Compound 236, 2,2-difluoro-N-((1R,2R)-1-(8-fluoro-2,3-dihydrobenzo[b][1,4]dioxin-6-yl)-1-hydroxy-3-(pyrrolidin-1-yl)propan-2-yl)-2-(4-(1-methyl-1H-indazol-6-yl)phenyl)acetamide]
12 | < 50 nM | Cn1cc2ccc(-c3ccc(C(F)(F)C(=O)N[C@H](CN4CCCC4)[C@H](O)c4ccc(OC5CC5)c(Cl)c4)cc3)cc2n1 [Compound 237, N-((1R,2R)-1-(3-chloro-4-cyclopropoxyphenyl)-1-hydroxy-3-(pyrrolidin-1-yl)propan-2-yl)-2,2-difluoro-2-(4-(2-methyl-2H-indazol-6-yl)phenyl)acetamide]
13 | < 50 nM | O=C(N[C@H](CN1CCCC1)[C@H](O)c1cc(F)c2c(c1)OCCO2)C(F)(F)c1ccc(-c2ccc(F)cc2)s1 [Compound 239, 2,2-difluoro-N-((1R,2R)-1-(8-fluoro-2,3-dihydrobenzo[b][1,4]dioxin-6-yl)-1-hydroxy-3-(pyrrolidin-1-yl)propan-2-yl)-2-(5-(4-fluorophenyl)thiophen-2-yl)acetamide]
14 | < 50 nM | Cn1cc2cc(-c3ccc(C(=O)C(=O)N[C@H](CN4CCCC4)[C@H](O)c4cc(F)c5c(c4)OCCO5)cc3)ccc2n1 [Compound 240, N-((1R,2R)-1-(8-fluoro-2,3-dihydrobenzo[b][1,4]dioxin-6-yl)-1-hydroxy-3-(pyrrolidin-1-yl)propan-2-yl)-2-(4-(2-methyl-2H-indazol-5-yl)phenyl)-2-oxoacetamide]
15 | < 50 nM | O=C(N[C@H](CN1CCCC1)[C@H](O)c1ccc(OC2CC2)c(Cl)c1)C(=O)c1ccc(Oc2ccc(F)cc2)cc1 [Compound 241, N-((1R,2R)-1-(3-chloro-4-cyclopropoxyphenyl)-1-hydroxy-3-(pyrrolidin-1-yl)propan-2-yl)-2-(4-(4-fluorophenoxy)phenyl)-2-oxoacetamide]
16 | < 50 nM | O=C(N[C@H](CN1CCCC1)[C@H](O)c1ccc(OC2CC2)c(Cl)c1)C(=O)c1cc2ccc(Cl)cc2s1 [Compound 242, N-((1R,2R)-1-(3-chloro-4-cyclopropoxyphenyl)-1-hydroxy-3-(pyrrolidin-1-yl)propan-2-yl)-2-(6-chlorobenzo[b]thiophen-2-yl)-2-oxoacetamide]
17 | < 50 nM | Cn1ncc2ccc(-c3ccc(C(=O)C(=O)N[C@H](CN4CCCC4)[C@H](O)c4ccc(OC5CC5)c(Cl)c4)cc3)cc21 [Compound 243, N-((1R,2R)-1-(3-chloro-4-cyclopropoxyphenyl)-1-hydroxy-3-(pyrrolidin-1-yl)propan-2-yl)-2-(4-(1-methyl-1H-indazol-6-yl)phenyl)-2-oxoacetamide]
18 | < 50 nM | Cn1ncc2ccc(C(=O)C(=O)N[C@H](CN3CCCC3)[C@H](O)c3ccc(OC4CC4)c(Cl)c3)cc21 [Compound 244, N-((1R,2R)-1-(3-chloro-4-cyclopropoxyphenyl)-1-hydroxy-3-(pyrrolidin-1-yl)propan-2-yl)-2-(1-methyl-1H-indazol-6-yl)-2-oxoacetamide]
19 | < 50 nM | Cn1ncc2ccc(-c3ccc(C(=O)C(=O)N[C@H](CN4CCCC4)[C@H](O)c4cc(F)c5c(c4)OCCO5)cc3)cc21 [Compound 246, N-((1R,2R)-1-(8-fluoro-2,3-dihydrobenzo[b][1,4]dioxin-6-yl)-1-hydroxy-3-(pyrrolidin-1-yl)propan-2-yl)-2-(4-(1-methyl-1H-indazol-6-yl)phenyl)-2-oxoacetamide]
20 | < 50 nM | O=C(N[C@H](CN1CCC1)[C@H](O)c1cc(F)c2c(c1)OCCO2)C(=O)c1cccc(Oc2ccc(F)cc2)c1 [Compound 248, N-((1R,2R)-3-(azetidin-1-yl)-1-(8-fluoro-2,3-dihydrobenzo[b][1,4]dioxin-6-yl)-1-hydroxypropan-2-yl)-2-(3-(4-fluorophenoxy)phenyl)-2-oxoacetamide]
21 | < 50 nM | O=C(N[C@H](CN1CCCC1)[C@H](O)c1ccc(OC2CC2)c(Cl)c1)C(=O)c1cccc(Oc2ccc(F)cc2)c1 [Compound 249, N-((1R,2R)-1-(3-chloro-4-cyclopropoxyphenyl)-1-hydroxy-3-(pyrrolidin-1-yl)propan-2-yl)-2-(3-(4-fluorophenoxy)phenyl)-2-oxoacetamide]
22 | < 50 nM | O=C(N[C@H](CN1CCCC1)[C@H](O)c1cc(F)c2c(c1)OCCO2)C(=O)c1cccc(-c2ccc(F)cc2)c1 [Compound 250, N-((1R,2R)-1-(8-fluoro-2,3-dihydrobenzo[b][1,4]dioxin-6-yl)-1-hydroxy-3-(pyrrolidin-1-yl)propan-2-yl)-2-(4′-fluoro-[1,1′-biphenyl]-3-yl)-2-oxoacetamide]
23 | < 50 nM | O=C(N[C@H](CN1CCCC1)[C@H](O)c1ccc(OC2CC2)c(Cl)c1)C(=O)c1cccc(-c2ccc(F)cc2)c1 [Compound 251, N-((1R,2R)-1-(3-chloro-4-cyclopropoxyphenyl)-1-hydroxy-3-(pyrrolidin-1-yl)propan-2-yl)-2-(4′-fluoro-[1,1′-biphenyl]-3-yl)-2-oxoacetamide]
